In ChEMBL document CHEMBL5543072, “Discovery of a novel lead characterized by a stilbene-extended scaffold against sepsis as soluble epoxide hydrolase inhibitors” (Eur J Med Chem, 2024):

Tests used:
[1] = biological target: T1, Bifunctional epoxide hydrolase 2 (Mus musculus, UniProt P34914)
T1 sequence (P34914 whole entry): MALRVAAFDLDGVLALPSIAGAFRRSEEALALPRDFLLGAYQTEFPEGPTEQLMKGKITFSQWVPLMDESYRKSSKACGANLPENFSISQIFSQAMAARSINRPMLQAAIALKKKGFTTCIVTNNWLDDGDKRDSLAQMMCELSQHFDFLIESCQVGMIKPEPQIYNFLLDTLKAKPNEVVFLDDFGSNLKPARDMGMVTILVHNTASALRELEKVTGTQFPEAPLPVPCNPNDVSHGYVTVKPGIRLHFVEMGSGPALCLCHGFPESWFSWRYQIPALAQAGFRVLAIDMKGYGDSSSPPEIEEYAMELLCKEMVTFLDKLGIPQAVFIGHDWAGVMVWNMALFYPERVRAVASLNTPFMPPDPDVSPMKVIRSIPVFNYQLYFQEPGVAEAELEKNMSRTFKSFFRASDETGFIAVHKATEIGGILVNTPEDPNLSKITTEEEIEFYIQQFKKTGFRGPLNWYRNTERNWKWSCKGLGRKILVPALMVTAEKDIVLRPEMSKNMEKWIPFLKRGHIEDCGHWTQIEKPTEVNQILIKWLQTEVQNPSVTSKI

[2] = Apparent volume of distribution in Sprague-Dawley rat at 5 mg/kg, iv measured after 24 hrs; assay type: ADME, organism-based; details: in vivo, read-out: Vz
[3] = Cytotoxicity in HEK293T cells assessed as cell viability at 5 uM incubated for 48 hrs by CCK8 assay relative to control; assay type: toxicity, cell-based, HEK-293T; details: human, read-out: Activity
Mus musculus [4] = experiment: Anti-inflammatory activity in LPS-induced C57BL/6J mouse model of sepsis assessed as TNF-alpha in serum at 5 mg/kg, ip preadministered with compound for 24 hrs followed by LPS administration and measured after 3 hrs by ELISA (reference value: 282 pg/ml); assay type: functional; details: time 27 hrs
[5] = AUC (0 to 24 hrs) in Sprague-Dawley rat at 5 mg/kg, iv measured after 24 hrs; assay type: ADME, organism-based; details: in vivo
[6] = Half-life in Sprague-Dawley rat at 5 mg/kg, iv measured after 24 hrs; assay type: ADME, organism-based; details: in vivo
[7] = Cytotoxicity against human HepG2 cells assessed as cell viability at 5 uM incubated for 48 hrs by CCK8 assay relative to control; assay type: toxicity, cell-based; details: read-out: Activity
in vivo [8] = details: C57BL/6J, mouse, other tissue, ip, 5 mg/kg
Description: Ratio of AUC (0 to 24 hrs)in C57BL/6J mouse liver to blood at 5 mg/kg, ip measured after 24 hrs by LC-MS/MS analysis

Mus musculus [9] = experiment: Protection against LPS-induced sepsis in C57BL/6J mouse model assessed as survival rate at 0.05 mg/kg, iv measured after 24 hrs relative to control; assay type: functional
Mus musculus [10] = experiment: Protection against LPS-induced sepsis in C57BL/6J mouse model assessed as survival rate at 5 mg/kg, iv measured after 48 hrs relative to control; assay type: functional
Mus musculus [11] = experiment: Anti-inflammatory activity in LPS-induced C57BL/6J mouse model of sepsis assessed as IL-6 in serum at 5 mg/kg, ip preadministered with compound for 24 hrs followed by LPS administration and measured after 3 hrs by ELISA (reference value: 17292 pg/ml); assay type: functional; details: time 27 hrs
Mus musculus [12] = experiment: Protection against LPS-induced sepsis in C57BL/6J mouse model assessed as […] at 5 mg/kg, iv measured after 32 hrs relative to control; assay type: functional
Mus musculus [13] = experiment: Protection against LPS-induced sepsis in C57BL/6J mouse model assessed as survival rate at 5 mg/kg, iv measured after 24 hrs relative to control; assay type: functional
[14] = Oral bioavailability in Sprague-Dawley rat at 20 mg/kg measured after 24 hrs; assay type: ADME, organism-based; details: in vivo
[15] = Cmax in Sprague-Dawley rat at 5 mg/kg, iv measured after 24 hrs; assay type: ADME, organism-based; details: in vivo
Mus musculus [16] = experiment: Protection against LPS-induced sepsis in C57BL/6J mouse model assessed as survival rate at 0.5 mg/kg, iv measured after 24 hrs relative to control; assay type: functional
[17] = Half-life in Sprague-Dawley rat at 20 mg/kg, po measured after 24 hrs; assay type: ADME, organism-based; details: in vivo
Mus musculus [18] = experiment: Protection against LPS-induced sepsis in C57BL/6J mouse model assessed as survival rate at 30 mg/kg, iv measured upto 56 hrs relative to control; assay type: functional
Mus musculus [19] = experiment: Protection against LPS-induced sepsis in C57BL/6J mouse model assessed as survival rate at 0.5 mg/kg, iv measured after 48 hrs relative to control; assay type: functional
[20] = AUC (0 to 24 hrs)in C57BL/6J mouse blood at 5 mg/kg, ip measured after 24 hrs by LC-MS/MS analysis; assay type: ADME, organism-based
Mus musculus [21] = experiment: Protection against LPS-induced sepsis in C57BL/6J mouse model assessed as survival rate at 30 mg/kg, iv measured after 24 hrs relative to control; assay type: functional
Mus musculus [22] = experiment: Protection against LPS-induced sepsis in C57BL/6J mouse model assessed as […] at 5 mg/kg, iv measured after 24 hrs relative to control; assay type: functional
[23] = Apparent volume of distribution in Sprague-Dawley rat at 20 mg/kg, po measured after 24 hrs; assay type: ADME, organism-based; details: in vivo
[24] = Cmax in C57BL/6J mouse blood at 5 mg/kg, ip measured after 24 hrs by LC-MS/MS analysis; assay type: ADME, organism-based
in vivo [25] = details: C57BL/6J, mouse, other tissue, ip, 5 mg/kg; remark: listed apart in the source
Description: Ratio of Cmax in C57BL/6J mouse liver to blood at 5 mg/kg, ip measured after 24 hrs by LC-MS/MS analysis

[26] = Cmax in C57BL/6J mouse liver at 5 mg/kg, ip measured after 24 hrs by LC-MS/MS analysis; assay type: ADME, organism-based
Mus musculus [27] = experiment: Protection against LPS-induced sepsis in C57BL/6J mouse model assessed as survival rate at 30 mg/kg, iv measured after 48 hrs relative to control; assay type: functional
[28] = Cmax in Sprague-Dawley rat at 20 mg/kg, po measured after 24 hrs; assay type: ADME, organism-based; details: in vivo
[29] = AUC (0 to 24 hrs) in C57BL/6J mouse liver at 5 mg/kg, ip measured after 24 hrs by LC-MS/MS analysis; assay type: ADME, organism-based; details: in vivo
Mus musculus [30] = experiment: Anti-inflammatory activity in LPS-induced C57BL/6J mouse model of sepsis assessed as IL-6 in liver at 5 mg/kg, ip preadministered with compound for 24 hrs followed by LPS administration and measured after 3 hrs by ELISA (reference value: 308 pg/ml); assay type: functional; details: time 27 hrs

Question: With `O=C(Cc1ccccn1)Nc1cccc(/C=C/c2ccc(NC(=O)NCC3CCOCC3)cc2)c1` as the molecule, how does the IC50 [1] read?
Answer: 4.02 nM

Question: What about the Vd [2] of the same molecule?
Answer: 10.8 L/kg

Question: What about the viability at 48 h, 5 µM [3] of the same molecule?
Answer: 82.9%

Question: And the Activity (Mus musculus [4])?
Answer: 242 pg/mL

Question: And the AUC(0-t) at 24 h [5]?
Answer: 266 ng·h/mL

Question: And the half-life [6]?
Answer: 0.4 h

Question: What about the viability at 48 h, 5 µM [7] of the same molecule?
Answer: 73.9%

Question: And the Kp at 24 h (in vivo [8])?
Answer: 175

Question: What about the survival at 0.05 mg/kg (Mus musculus [9]) of the same molecule?
Answer: 30%

Question: What about the survival at 5 mg/kg (Mus musculus [10]) of the same molecule?
Answer: 40%

Question: What about the Activity (Mus musculus [11]) of the same molecule?
Answer: 15627 pg/mL

Question: What about the Activity (Mus musculus [12]) of the same molecule?
Answer: 40%

Question: What about the survival at 5 mg/kg (Mus musculus [13]) of the same molecule?
Answer: 60%

Question: And the bioavailability [14]?
Answer: 5.1%

Question: And the Cmax [15]?
Answer: 660 ng/mL

Question: What about the survival at 0.5 mg/kg (Mus musculus [16]) of the same molecule?
Answer: 50%

Question: What about the half-life [17] of the same molecule?
Answer: 2.19 h

Question: What about the survival at 30 mg/kg (Mus musculus [18]) of the same molecule?
Answer: > 50%

Question: What about the survival at 0.5 mg/kg (Mus musculus [19]) of the same molecule?
Answer: 40%

Question: What about the AUC(0-t) at 24 h [20] of the same molecule?
Answer: 122 ng·h/mL

Question: And the survival at 30 mg/kg (Mus musculus [21])?
Answer: 60%

Question: What about the Activity (Mus musculus [22]) of the same molecule?
Answer: 40%

Question: What about the Vz [23] of the same molecule?
Answer: 4132.531 L/kg

Question: And the Cmax [24]?
Answer: 330 ng/mL

Question: And the Kp at 24 h (in vivo [25])?
Answer: 7.6

Question: What about the Cmax [26] of the same molecule?
Answer: 2510 ng/g

Question: And the survival at 30 mg/kg (Mus musculus [27])?
Answer: 50%

Question: And the Cmax [28]?
Answer: 28.2 ng/mL

Question: And the AUC [29]?
Answer: 21370 ng·h/g

Question: And the Activity (Mus musculus [30])?
Answer: 270 pg/mL
